BindingDB's records for doi:10.1016/s0960-894x(99)00489-8 (Glaxowellcome Medicines Research Centre, 1999)
pIC50: −log10 of the molar value.

Columns and labels:
[1] = target: Human cytomegalovirus protease (assemblin) (Human herpesvirus 5); test: Inhibitory activity against HCMV protease by HPLC assay
[2] = target: Human cytomegalovirus protease (assemblin) (Human herpesvirus 5); test: Inhibitory activity against HCMV protease by SPA assay
[3] = target: Human cytomegalovirus protease (assemblin) (Human herpesvirus 5); test: Inhibitory activity against HCMV protease by HPLC assay; remark: listed apart in the source

pIC50 [1]	pIC50 [2]	pIC50 [3]	Compound
6.14	6.10	–	CC(=O)C(C(C)=O)C1=C(Cl)C(=O)c2ccccc2C1=O [2-(1-Acetyl-2-oxo-propyl)-3-chloro-[1,4]naphthoquinone]
6.15	6.14	–	CC(=O)C(C(=O)OCc1ccccc1)C1=C(Cl)C(=O)c2ccccc2C1=O (configuration not stated) [2-(3-Chloro-1,4-dioxo-1,4-dihydro-naphthalen-2-yl)-3-oxo-butyric acid benzyl ester]
5.04	5.57	–	CC(=O)C(C(=O)OC(C)C)C1=C(Cl)C(=O)c2ccccc2C1=O (configuration not stated) [2-(3-Chloro-1,4-dioxo-1,4-dihydro-naphthalen-2-yl)-3-oxo-butyric acid isopropyl ester]
–	–	3.96	O=C1C(OC2CCCCC2)=C(C2CCCCC2)C(=O)c2ccccc21 [2-Cyclohexyl-3-cyclohexyloxy-[1,4]naphthoquinone]

The remaining lines, values behind:

Compound	pIC50 [1]	pIC50 [2]	pIC50 [3]
CCOC(=O)C(C(C)=O)C1=C(Cl)C(=O)c2ccccc2C1=O (configuration not stated) [2-(3-Chloro-1,4-dioxo-1,4-dihydro-naphthalen-2-yl)-3-oxo-butyric acid ethyl ester]	5.32	5.84	–
CC1(C)CC(=O)C(C2=C(Cl)C(=O)c3ccccc3C2=O)C(=O)C1 [2-Chloro-3-(4,4-dimethyl-2,6-dioxo-cyclohexyl)-[1,4]naphthoquinone]	–	–	3.82
O=C1C(Cl)=C(C2CCCCCC2)C(=O)c2ccccc21 [2-Chloro-3-cycloheptyl-[1,4]naphthoquinone]	–	–	4.17
COC(=O)CC1=C(Cl)C(=O)c2ccccc2C1=O [(3-Chloro-1,4-dioxo-1,4-dihydro-naphthalen-2-yl)-acetic acid methyl ester]	–	–	3.83
